Data as given in PubChem BioAssay (NCI).
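Dose response: 5 concentrations. Exposure: 48 h. Format: 96-well plates. Endpoint: linear interpolation; highest concentration if not reached. At the GI50, growth is halved. TGI: total growth inhibition.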

Experiments:
Experiment in all cases: DTP human tumour cell line panel, 48 h
COLO 205 colon = tested on: COLO 205 colon
HCT-116 colon = tested on: HCT-116 colon
HCT-15 colon = tested on: HCT-15 colon
HL-60(TB) leukemia = tested on: HL-60(TB) leukemia
M14 melanoma = tested on: M14 melanoma
MALME-3M melanoma = tested on: MALME-3M melanoma
MDA-MB-231 breast = tested on: MDA-MB-231 breast
MOLT-4 leukemia = tested on: MOLT-4 leukemia
OVCAR-8 ovarian = tested on: OVCAR-8 ovarian
SF-539 CNS = tested on: SF-539 CNS

Structure (SMILES)	GI50 (COLO 205 colon) [µM]	TGI (COLO 205 colon) [µM]	GI50 (HCT-116 colon) [µM]	TGI (HCT-116 colon) [µM]	GI50 (HCT-15 colon) [µM]	TGI (HCT-15 colon) [µM]	GI50 (HL-60(TB) leukemia) [µM]	TGI (HL-60(TB) leukemia) [µM]	GI50 (M14 melanoma) [µM]	TGI (M14 melanoma) [µM]	GI50 (MALME-3M melanoma) [µM]	TGI (MALME-3M melanoma) [µM]	GI50 (MDA-MB-231 breast) [µM]	TGI (MDA-MB-231 breast) [µM]	GI50 (MOLT-4 leukemia) [µM]	TGI (MOLT-4 leukemia) [µM]	GI50 (OVCAR-8 ovarian) [µM]	TGI (OVCAR-8 ovarian) [µM]	GI50 (SF-539 CNS) [µM]	TGI (SF-539 CNS) [µM]
COc1cc(NC(C)CCCN)c2nccc(C)c2c1OC (stereo not given)	3.37	11.8	5	18.7	11.5	24.5	4.56	16.8	2.97	12.7	2.84	9.84	8.18	25.3	15.3	42.1	14.5	42.3	10.2	22.5
COc1cc2cn3c4ccc(O)cc4[nH]c(=O)c3c2cc1OC	0.0201	0.429	< 0.01	1.66	0.0207	1.35	0.0264	2.3	0.0206	1.64	0.0349	2.06	0.0516	1.79	0.0439	2.01	0.0319	1.53	0.0176	0.296
O=C(O)c1cccc(OCCO)c1		> 100		> 100		> 100		> 100		> 100		> 100		> 100		> 100		> 100		> 100
CC(=O)O[C@@H]1C[C@]2(C(C)C)O[C@@]1(C)[C@@H]1CCC(C)=C1[C@@H]2OC(=O)/C=C/c1ccccc1	31.4	> 100	16.4	> 100	32.7	> 100	25.1	> 100	40.1	> 100	39.2	> 100	49.3	> 100	26.9	> 100	8.89	> 100	> 100	> 100
O=C(Nc1cccc(Cl)c1Cl)c1cccc(NC2=C(Cl)C(=O)N(Cc3ccccc3)C2=O)c1	> 100	> 100	22.1	> 100	52.1	> 100	10.5	30.7	35.8	> 100	> 100	> 100	32.2	> 100	3.11	9.07	9.47	42	9.87	40.6
CCCS(=O)(=O)Nc1ccc(Nc2c3ccccc3nc3ccccc23)c(OC)c1		20.8		13.2		6.41		0.45		17.8		6.68		10.4		0.231		5.82		4.18
Cc1cc(NC(=O)c2ccc(C)c(Nc3nccc(-c4cccnc4)n3)c2)cc(-n2cnc(C)c2)c1	2.4	7.23	0.932	3.28	7.49	> 27	14.5	> 50	2.71	10.1	2.39	10.6	1.25	5.45	15.6	> 50	4.27	13.7	2.09	9.27
COc1cc2c(cc1OC)C13CCN4CC5=CCOC6CC(=O)N2C1C6C5CC43O (stereo not given)		> 100		> 100		> 100		> 100		> 100		> 100		> 100		> 100		> 100		> 100
COC(=O)[C@@H](NC(=O)[C@@H](OC)[C@@H]1Cc2cc3cc(OC4CC(OC5CC(O)C(O)C(C)O5)C(O)C(C)O4)c(C)c(O)c3c(O)c2C(=O)[C@H]1OC1CC(OC2CC(OC3CC(C)(O)C(O)C(C)O3)C(O)C(C)O2)C(O)C(C)O1)C(C)C (stereo not given in full)	0.137	> 32.5	0.0934	> 32.5	0.181	> 32.5	0.348	> 32.5	0.147	> 32.5	0.0763	1.43	0.192	19.9	0.136	5.24	0.15	> 32.5	0.127	0.847
